Counter-ions that a name gives are not always drawn.
These compounds were tested against T1, human Npt2a (Homo sapiens, UniProt Q06495) (assay: Npt2a activity cell based assay, membrane potential dye, CHO T-REx hNpt2a cells). Details: doxycycline-induced, depolarization by sodium phosphate influx, average or median values if tested more than once.
T1 construct: expressed in transfected cells
T1 sequence (Q06495 1-639): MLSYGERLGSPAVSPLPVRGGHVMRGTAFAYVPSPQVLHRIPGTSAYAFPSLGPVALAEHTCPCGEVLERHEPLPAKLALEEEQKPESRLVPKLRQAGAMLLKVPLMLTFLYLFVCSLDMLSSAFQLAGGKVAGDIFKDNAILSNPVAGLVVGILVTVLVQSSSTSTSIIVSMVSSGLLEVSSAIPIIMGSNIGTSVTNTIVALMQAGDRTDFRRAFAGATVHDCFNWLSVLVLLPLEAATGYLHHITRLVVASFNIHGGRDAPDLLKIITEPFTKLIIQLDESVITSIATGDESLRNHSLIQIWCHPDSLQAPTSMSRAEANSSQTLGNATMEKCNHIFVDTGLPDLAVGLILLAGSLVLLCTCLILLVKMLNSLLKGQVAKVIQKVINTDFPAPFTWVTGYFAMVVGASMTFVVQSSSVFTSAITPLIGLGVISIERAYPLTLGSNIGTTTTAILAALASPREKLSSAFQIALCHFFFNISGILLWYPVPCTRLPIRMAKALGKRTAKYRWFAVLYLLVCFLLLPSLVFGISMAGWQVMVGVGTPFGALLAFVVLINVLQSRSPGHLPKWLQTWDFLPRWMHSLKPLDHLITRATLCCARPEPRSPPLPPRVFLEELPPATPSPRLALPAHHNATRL
Procedure, shortened: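 Doxycycline-induced (0.5 μg/mL, 24 h) CHO T-REx cells were loaded with membrane potential dye in sodium-free NHE buffer (pH 7.4) and exposed to compound (50 μM–1 nM, 5 min, room temperature).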
Cc1nn(-c2cc(Nc3c(C)c(-c4ccc(F)cc4)nn3CC3CC3)ncn2)c(C)c1C(O)C1CC1 (racemic) [Example 405, (±)-cyclopropyl[1-(6-{[1-(cyclopropylmethyl)-3-(4-fluorophenyl)-4-methyl-1H-pyrazol-5-yl]amino}pyrimidin-4-yl)-3,5-dimethyl-1H-pyrazol-4-yl]methanol] gave an IC50 of 14 nM. Compound Cc1nn(-c2cc(Nc3c(C)c(-c4ccc(C(F)F)cc4)nn3CC3CC3)ncn2)c(C)c1C(O)C1CC1 (single isomer, unassigned) [Example 495, Cyclopropyl {1-[6-({1-(cyclopropylmethyl)-3-[4-(difluoromethyl)phenyl]-4-methyl-1H-pyrazol-5-yl}amino)pyrimidin-4-yl]-3,5-dimethyl-1H-pyrazol-4-yl}methanol] has an IC50 of 11 nM. Cc1nn(-c2cc(Nc3c(C)nn(-c4ccc(F)cc4)c3C)ncn2)c(C)c1CC(C)(C)O [Example 393, 1-[1-(6-{[1-(4-fluorophenyl)-3,5-dimethyl-1H-pyrazol-4-yl]amino}pyrimidin-4-yl)-3,5-dimethyl-1H-pyrazol-4-yl]-2-methylpropan-2-ol] was tested, and the IC50 was 180 nM. Compound Cc1nn(-c2cc(Nc3c(C)c(-c4ccc(F)cc4)nn3CC3CC3)ncn2)c(C)c1N [Example 484, 6-(4-amino-3,5-dimethyl-1H-pyrazol-1-yl)-N-[1-(cyclopropylmethyl)-3-(4-fluorophenyl)-4-methyl-1H-pyrazol-5-yl]pyrimidin-4-amine trifluoroacetate] has an IC50 of 36 nM. Compound Cc1cc(C)n(-c2cc(Nc3nn(C)c(-c4ccc(F)cc4)c3CN3CCCC3)ncn2)n1 [Example 194, 6-(3,5-dimethyl-1H-pyrazol-1-yl)-N-[5-(4-fluorophenyl)-1-methyl-4-(pyrrolidin-1-ylmethyl)-1H-pyrazol-3-yl]pyrimidin-4-amine] has an IC50 of 1300 nM. CCc1c(Nc2cc(-n3ncc4c3CCC4)ncn2)n[nH]c1-c1ccc(F)cc1 [Example 27, 6-(5,6-dihydrocyclopenta[c]pyrazol-1 (4H)-yl)-N-[4-ethyl-5-(4-fluorophenyl)-1H-pyrazol-3-yl]pyrimidin-4-amine] showed an IC50 of 460 nM. In the case of Cc1nn(-c2cc(Nc3nn(C)c(-c4ccc(F)cc4F)c3Cl)ncn2)c2ccccc12 [Example 57, N-[4-chloro-5-(2,4-difluorophenyl)-1-methyl-1H-pyrazol-3-yl]-6-(3-methyl-1H-indazol-1-yl)pyrimidin-4-amine], the IC50 is reported as 117 nM. Cc1cc(C(F)F)n(-c2cc(Nc3c(C)c(-c4ccc(OC(F)F)cc4)nn3CC3CC3)ncn2)n1 [Example 475, N-{1-(cyclopropylmethyl)-3-[4-(difluoromethoxy)phenyl]-4-methyl-1H-pyrazol-5-yl}-6-[5-(difluoromethyl)-3-methyl-1H-pyrazol-1-yl]pyrimidin-4-amine] was tested, and the IC50 was 215 nM. Compound COc1c(-c2ccc(C#N)cc2)nn(CC2CC2)c1Nc1cc(-n2nc(C)c(C(C)OC)c2C)ncn1 (single isomer, unassigned) [Example 335] has an IC50 of 51 nM. For CCc1c(Nc2cc(-n3nc(C)cc3C)ncn2)n[nH]c1-c1ccc(F)cc1F [Example 9, N-[5-(2,4-difluorophenyl)-4-ethyl-1H-pyrazol-3-yl]-6-(3,5-dimethyl-1H-pyrazol-1-yl)pyrimidin-4-amine], the IC50 was 40 nM. Work on CCc1c(Nc2cc(-n3nc(C)c4c3CCCC4=O)ncn2)nn(C)c1-c1ccc(F)cc1 [Example 133, 1-(6-{[4-ethyl-5-(4-fluorophenyl)-1-methyl-1H-pyrazol-3-yl]amino}pyrimidin-4-yl)-3-methyl-1,5,6,7-tetrahydro-4H-indazol-4-one] yielded an IC50 of 57 nM. For Cc1cc(C)n(-c2cc(Nc3c(C)c(-c4ccc(C5CC5)cc4)nn3C)ncn2)n1 [Example 324, N-[3-(4-cyclopropylphenyl)-1,4-dimethyl-1H-pyrazol-5-yl]-6-(3,5-dimethyl-1H-pyrazol-1-yl)pyrimidin-4-amine], the IC50 was 270 nM. Compound Cc1cc(C)n(-c2cc(Nc3c(C)nn(-c4ccc(C#N)cc4)c3C)ncn2)n1 [Example 199, 4-(4-{[6-(3,5-dimethyl-1H-pyrazol-1-yl)pyrimidin-4-yl]amino}-3,5-dimethyl-1H-pyrazol-1-yl)benzonitrile] has an IC50 of 36 nM. CCC(O)c1c(C)nn(-c2cc(Nc3c(C)c(-c4ccc(F)cc4)nn3CC3CC3)ncn2)c1C (racemic) [Example 280, (±)-1-[1-(6-{[1-(cyclopropylmethyl)-3-(4-fluorophenyl)-4-methyl-1H-pyrazol-5-yl]amino}pyrimidin-4-yl)-3,5-dimethyl-1H-pyrazol-4-yl]propan-1-ol (Racemic)] gave an IC50 of 16 nM. In the case of CCOC(=O)c1c(C)nn(-c2cc(Nc3c(C)c(-c4ccc(OC(F)(F)F)cc4)nn3C)ncn2)c1C [Example 361, ethyl 1-[6-({1,4-dimethyl-3-[4-(trifluoromethoxy)phenyl]-1H-pyrazol-5-yl}amino)pyrimidin-4-yl]-3,5-dimethyl-1H-pyrazole-4-carboxylate], the IC50 is reported as 31 nM. CCc1c(-c2ccc(C#N)cc2)nn(CC2CC2)c1Nc1cc(-n2nc(C)c(C(C)=O)c2C)ncn1 [Example 202, 4-[5-{[6-(4-acetyl-3,5-dimethyl-1H-pyrazol-1-yl)pyrimidin-4-yl]amino}-1-(cyclopropylmethyl)-4-ethyl-1H-pyrazol-3-yl]benzonitrile] showed an IC50 of 13 nM. CCc1c(Nc2cc(-n3nc(C)cc3C(F)F)ncn2)nn(C)c1-c1ccc(F)cc1 [Example 64, 6-[5-(difluoromethyl)-3-methyl-1H-pyrazol-1-yl]-N-[4-ethyl-5-(4-fluorophenyl)-1-methyl-1H-pyrazol-3-yl]pyrimidin-4-amine] gave an IC50 of 6.25 nM. COc1ccc(-c2nn(C)c(Nc3cc(-n4nc(C)c(Cl)c4C)ncn3)c2C)cn1 [Example 505, 6-(4-chloro-3,5-dimethyl-1H-pyrazol-1-yl)-N-[3-(6-methoxypyridin-3-yl)-1,4-dimethyl-1H-pyrazol-5-yl]pyrimidin-4-amine] was tested, and the IC50 was 1200 nM. For CCOC(=O)c1c(C)nn(-c2cc(Nc3nn(CC4CC4)c(-c4ccc(F)cc4)c3CC)ncn2)c1C [Example 145, ethyl 1-(6-{[1-(cyclopropylmethyl)-4-ethyl-5-(4-fluorophenyl)-1H-pyrazol-3-yl]amino}pyrimidin-4-yl)-3,5-dimethyl-1H-pyrazole-4-carboxylate], the IC50 was 170 nM. COCCn1nc(-c2ccc(F)cn2)c(C)c1Nc1cc(-n2nc(C)cc2C)ncn1 [Example 542, 6-(3,5-dimethyl-1H-pyrazol-1-yl)-N-[3-(5-fluoropyridin-2-yl)-1-(2-methoxyethyl)-4-methyl-1H-pyrazol-5-yl]pyrimidin-4-amine] was tested, and the IC50 was 28 nM. With COc1c(C)nn(-c2cc(Nc3c(C)c(-c4ccc(F)cc4)nn3CC3CC3)ncn2)c1C [Example 385, N-[1-(cyclopropylmethyl)-3-(4-fluorophenyl)-4-methyl-1H-pyrazol-5-yl]-6-(4-methoxy-3,5-dimethyl-1H-pyrazol-1-yl)pyrimidin-4-amine] the IC50 was 4 nM. In the case of Cc1nn(-c2cc(Nc3c(C)c(-c4ccc(F)cc4)nn3CC3CC3)ncn2)c(C)c1C(N(C)C)C(F)(F)F (racemic) [Example 504, N-[1-(cyclopropylmethyl)-3-(4-fluorophenyl)-4-methyl-1H-pyrazol-5-yl]-6-{4-[(±)-1-(dimethylamino)-2,2,2-trifluoroethyl]-3,5-dimethyl-1H-pyrazol-1-yl}pyrimidin-4-amine], the IC50 is reported as 5 nM. Work on Cc1nn(-c2cc(Nc3c(C)c(-c4ccc(C#N)cc4)nn3C)ncn2)c2c1C(C)(O)CC2 (racemic) [Example 227, 4-[5-({6-[(±)-4-hydroxy-3,4-dimethyl-5,6-dihydrocyclopenta[c]pyrazol-1(4H)-yl]pyrimidin-4-yl}amino)-1,4-dimethyl-1H-pyrazol-3-yl]benzonitrile] yielded an IC50 of 16 nM. With Cc1nn(-c2cc(Nc3c(C)c(-c4ccc(C(F)(F)F)cc4)nn3CC3CC3)ncn2)c(C)c1C(C)(C)O [Example 292, 2-{1-[6-({1-(cyclopropylmethyl)-4-methyl-3-[4-(trifluoromethyl)phenyl]-1H-pyrazol-5-yl}amino)pyrimidin-4-yl]-3,5-dimethyl-1H-pyrazol-4-yl}propan-2-ol] the IC50 was 240 nM. Cc1nn(-c2cc(Nc3nn(CC4CC4)c(-c4ccc(F)cc4)c3C)ncn2)c(C)c1Cl [Example 170, 6-(4-chloro-3,5-dimethyl-1H-pyrazol-1-yl)-N-[1-(cyclopropylmethyl)-5-(4-fluorophenyl)-4-methyl-1H-pyrazol-3-yl]pyrimidin-4-amine] gave an IC50 of 440 nM. Work on Cc1nn(-c2cc(Nc3n[nH]c(-c4ccc(C#N)cc4)c3C)ncn2)c(C)c1Cl [Example 137, 4-(3-{[6-(4-chloro-3,5-dimethyl-1H-pyrazol-1-yl)pyrimidin-4-yl]amino}-4-methyl-1H-pyrazol-5-yl)benzonitrile] yielded an IC50 of 71 nM. With COCc1c(C)nn(-c2cc(Nc3c(C)c(-c4ccc(F)cc4)nn3CC3CC3)ncn2)c1C [Example 503, N-[1-(cyclopropylmethyl)-3-(4-fluorophenyl)-4-methyl-1H-pyrazol-5-yl]-6-[4-(methoxymethyl)-3,5-dimethyl-1H-pyrazol-1-yl]pyrimidin-4-amine] the IC50 was 4 nM.

Source: patent publication US11208400B2, “Substituted 6-(1H-pyrazol-1-yl)pyrimidin-4-amine derivatives and uses thereof” (Bayer Aktiengesellschaft, priority 2016, dated 2021)
